Activity calls are given as the source filed them. The calls are words filed in the database; no cut-off is given here.

The experiment has as its target Toll-like receptor 2 (Homo sapiens) (UniProt O60603). The experiment in a line: Agonist activity at TLR2 expressed in HEK293 cells co-expressing pNF-kappaB-Luc Cis assessed as NF-kappaB activation at 100 nM by luciferase reporter gene assay. In kind it is functional, cell-based. (In a reporter assay the amount or activity of a reporter protein is the signal.)

Sequence of Toll-like receptor 2 (Homo sapiens) (O60603 whole entry): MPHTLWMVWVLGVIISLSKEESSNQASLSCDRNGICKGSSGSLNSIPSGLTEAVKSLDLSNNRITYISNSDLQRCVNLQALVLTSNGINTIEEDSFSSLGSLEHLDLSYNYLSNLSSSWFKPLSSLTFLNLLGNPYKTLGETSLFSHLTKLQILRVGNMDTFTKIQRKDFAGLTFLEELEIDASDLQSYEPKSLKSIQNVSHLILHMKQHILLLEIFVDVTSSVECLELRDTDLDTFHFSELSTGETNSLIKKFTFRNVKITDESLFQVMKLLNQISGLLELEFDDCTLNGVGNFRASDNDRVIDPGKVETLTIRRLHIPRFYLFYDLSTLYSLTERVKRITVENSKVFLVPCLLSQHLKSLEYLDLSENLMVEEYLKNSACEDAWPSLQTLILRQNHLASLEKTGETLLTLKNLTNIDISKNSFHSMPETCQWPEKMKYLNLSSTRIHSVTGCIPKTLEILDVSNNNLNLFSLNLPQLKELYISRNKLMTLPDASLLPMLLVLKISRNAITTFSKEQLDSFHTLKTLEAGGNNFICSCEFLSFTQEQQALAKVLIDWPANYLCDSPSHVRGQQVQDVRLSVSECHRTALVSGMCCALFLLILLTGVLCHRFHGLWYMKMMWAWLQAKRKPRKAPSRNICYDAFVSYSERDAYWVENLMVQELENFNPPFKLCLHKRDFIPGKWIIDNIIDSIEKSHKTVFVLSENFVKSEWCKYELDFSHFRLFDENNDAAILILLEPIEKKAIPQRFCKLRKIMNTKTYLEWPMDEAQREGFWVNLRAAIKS

With `CCCCCCCCCCCCCCCC(=O)NC(CCCCCCCCCCCCCC)C(=O)O` (configuration not stated), the result was Active.
Next, `CCCCCCCCCCCCCCCC(=O)NC(CO)CCCCCCCCCCCCCC` (configuration not stated): “Active”.

The values are drawn from ChEMBL document CHEMBL1833931, “Simple synthetic toll-like receptor 2 ligands” (Bioorg Med Chem Lett, 2011).
